Test results: ChEMBL document CHEMBL1201862, “PubChem BioAssay data set” (2004)
Activity calls are given as the source filed them.

Assays:
[1] = target: 26S proteasome non-ATPase regulatory subunit 14 (Homo sapiens, UniProt O00487); test: inhibition of proteasome subunit RPN11 – biochemical, fluorescence polarization, uHTS hits, confirmation (AID 602368); assay type: functional
[2] = target: T1, Short transient receptor potential channel 4 (Mus musculus, UniProt Q9QUQ5); test: block of DAMGO-driven TRPC4 calcium entry – cell-based, HEK293 TRPC4/mu-opioid, Fluo-4 calcium, dose response (AID 434942); assay type: functional;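 also: potency of inhibitors blocking the TRPC4 calcium response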
T1 sequence (Q9QUQ5 whole entry): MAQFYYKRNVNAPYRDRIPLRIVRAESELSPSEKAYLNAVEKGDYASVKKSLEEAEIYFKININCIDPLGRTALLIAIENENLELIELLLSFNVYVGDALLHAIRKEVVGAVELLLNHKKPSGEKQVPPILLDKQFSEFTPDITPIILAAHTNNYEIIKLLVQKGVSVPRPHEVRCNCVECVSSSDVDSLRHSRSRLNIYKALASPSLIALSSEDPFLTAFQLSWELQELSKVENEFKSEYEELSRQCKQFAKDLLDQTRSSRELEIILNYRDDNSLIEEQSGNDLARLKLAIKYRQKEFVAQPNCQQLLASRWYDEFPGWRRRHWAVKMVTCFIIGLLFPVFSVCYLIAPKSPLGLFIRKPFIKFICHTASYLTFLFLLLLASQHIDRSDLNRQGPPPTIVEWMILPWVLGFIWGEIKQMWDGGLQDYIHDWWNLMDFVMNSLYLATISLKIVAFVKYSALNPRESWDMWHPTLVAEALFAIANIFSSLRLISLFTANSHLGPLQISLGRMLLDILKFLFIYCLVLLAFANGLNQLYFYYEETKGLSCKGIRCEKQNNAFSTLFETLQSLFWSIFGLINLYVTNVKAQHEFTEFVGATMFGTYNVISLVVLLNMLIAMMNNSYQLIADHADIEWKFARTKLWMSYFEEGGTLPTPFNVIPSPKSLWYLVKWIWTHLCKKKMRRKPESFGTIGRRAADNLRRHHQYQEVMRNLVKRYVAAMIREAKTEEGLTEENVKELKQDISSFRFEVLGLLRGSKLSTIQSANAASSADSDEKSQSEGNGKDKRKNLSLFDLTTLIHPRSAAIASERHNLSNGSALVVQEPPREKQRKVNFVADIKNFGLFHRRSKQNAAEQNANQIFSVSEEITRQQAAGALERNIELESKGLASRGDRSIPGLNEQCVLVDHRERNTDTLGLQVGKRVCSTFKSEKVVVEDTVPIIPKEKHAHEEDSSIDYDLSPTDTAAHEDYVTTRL

Prothrombin = Prothrombin (Bos taurus, UniProt P00735); test: thrombin protease inhibitors – biochemical, fluorescence polarization, uHTS hits, dose response (AID 602369); assay type: functional
[3] = target: 72 kDa type IV collagenase (Homo sapiens, UniProt P08253); test: Dose Response validation of uHTS RPN11 inhibitor hits using a MMP-2 Fluorescence assay.; assay type: functional
72 kDa type IV collagenase, sequence (P08253 whole entry): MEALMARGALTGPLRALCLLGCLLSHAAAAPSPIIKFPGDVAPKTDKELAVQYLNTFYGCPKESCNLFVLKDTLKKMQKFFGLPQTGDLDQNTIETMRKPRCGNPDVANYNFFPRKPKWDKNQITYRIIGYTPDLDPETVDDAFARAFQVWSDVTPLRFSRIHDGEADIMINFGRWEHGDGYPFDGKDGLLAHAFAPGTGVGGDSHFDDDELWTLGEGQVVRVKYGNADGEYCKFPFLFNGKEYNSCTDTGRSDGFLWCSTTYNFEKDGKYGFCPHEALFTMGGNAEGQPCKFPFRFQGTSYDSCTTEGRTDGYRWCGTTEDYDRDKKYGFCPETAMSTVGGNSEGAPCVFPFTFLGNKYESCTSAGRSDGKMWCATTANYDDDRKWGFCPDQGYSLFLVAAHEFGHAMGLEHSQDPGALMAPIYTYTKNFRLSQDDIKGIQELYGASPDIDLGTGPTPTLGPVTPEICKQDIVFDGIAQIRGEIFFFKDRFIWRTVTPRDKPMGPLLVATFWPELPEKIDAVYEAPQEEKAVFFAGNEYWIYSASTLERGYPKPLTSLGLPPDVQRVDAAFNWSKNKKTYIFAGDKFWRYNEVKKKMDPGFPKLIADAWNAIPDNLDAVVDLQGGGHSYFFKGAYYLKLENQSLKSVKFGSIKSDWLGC

[4] = target: T2, Orexin/Hypocretin receptor type 1 (Homo sapiens, UniProt O43613); test: (§1) Fluorescence-based cell-based high throughput dose response assay for antagonists of the orexin 1 receptor (OX1R; HCRTR1). [Related pubchem assays (depositor defined):AID434989, AID435008, AID463079, AID485270, AID492963, AID492964, AID492965, AID493232, AID504717, AID504718]; assay type: functional
T2 sequence (O43613 whole entry): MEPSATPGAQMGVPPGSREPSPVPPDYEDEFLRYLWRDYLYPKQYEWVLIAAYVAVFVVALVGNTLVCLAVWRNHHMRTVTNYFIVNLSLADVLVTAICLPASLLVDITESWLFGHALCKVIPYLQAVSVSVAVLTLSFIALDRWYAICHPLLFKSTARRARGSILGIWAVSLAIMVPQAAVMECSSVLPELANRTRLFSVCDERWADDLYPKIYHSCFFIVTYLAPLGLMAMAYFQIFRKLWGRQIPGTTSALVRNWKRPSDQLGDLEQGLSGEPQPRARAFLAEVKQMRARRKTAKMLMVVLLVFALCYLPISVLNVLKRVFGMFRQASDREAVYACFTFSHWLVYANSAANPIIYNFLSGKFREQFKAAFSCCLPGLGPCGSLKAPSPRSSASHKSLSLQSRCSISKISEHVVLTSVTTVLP

[5] = target: T2, Orexin/Hypocretin receptor type 1; test: as §1, with “Homogeneous Time Resolved Fluorescence (HTRF)-based” for “Fluorescence-based”; assay type: functional
[6] = (§2) Counterscreen for antagonists of the orexin 1 receptor (OX1R; HCRTR1): Fluorescence-based cell-based high throughput dose response assay to identify antagonists of the parental CHO cell line. [Related pubchem assays (depositor defined):AID434989, AID435008, AID463079, AID485270, AID492963, AID492964, AID492965, AID493232, AID504699, AID504701]; assay type: functional
Orexin receptor type 2 [7] = target: T3, Orexin receptor type 2 (Homo sapiens, UniProt O43614); test: Counterscreen assay for antagonists of the orexin 1 receptor (OX1R; HCRTR1): Homogeneous Time Resolved Fluorescence (HTRF)-based cell-based dose response assay for antagonists of the orexin 2 receptor (OX2R; HCRTR2), run by assay provider.; assay type: functional
T3 sequence (O43614 whole entry): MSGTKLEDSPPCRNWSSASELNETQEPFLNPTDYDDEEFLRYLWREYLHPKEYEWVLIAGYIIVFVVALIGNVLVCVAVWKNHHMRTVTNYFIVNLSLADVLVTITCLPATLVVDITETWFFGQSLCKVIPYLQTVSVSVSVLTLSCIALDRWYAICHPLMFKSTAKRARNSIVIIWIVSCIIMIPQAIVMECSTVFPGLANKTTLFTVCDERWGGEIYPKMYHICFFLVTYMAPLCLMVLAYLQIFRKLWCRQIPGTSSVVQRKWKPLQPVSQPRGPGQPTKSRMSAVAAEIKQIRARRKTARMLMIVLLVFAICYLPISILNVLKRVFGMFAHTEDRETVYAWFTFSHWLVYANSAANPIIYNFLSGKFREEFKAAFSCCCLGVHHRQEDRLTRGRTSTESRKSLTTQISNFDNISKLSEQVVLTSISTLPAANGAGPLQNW

Orexin receptor type 2 [8] = target: T3, Orexin receptor type 2; test: Counterscreen assay for antagonists of the orexin 1 receptor (OX1R; HCRTR1): Fluorescence-based cell-based dose response assay for antagonists of the orexin 2 receptor (OX2R; HCRTR2), run by assay provider.; assay type: functional
CHO-K1 = test: as §2, with “Homogeneous time resolved fluorescence (HTRF)-based” for “Fluorescence-based”, “cell-based” for “cell-based high throughput”, “CHO-K1” for “CHO”; assay type: functional; details: Cricetulus griseus;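 also: potency for inhibition of ATP-stimulated IP1 production as antagonists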
[9] = Fluorescence-based cell-based high throughput dose response assay for inhibitors of the interaction of nucleotide-binding oligomerization domain containing 2 (NOD2) and the receptor-interacting serine-threonine kinase 2 (RIPK2).; assay type: functional; details: Homo sapiens
[10] = HepG2 cell cytotoxicity, dose response, cytotoxicity control for non-replicating M. tuberculosis project (AID 489018); assay type: functional; details: Mycobacterium tuberculosis
cells = assay type: functional
[11] = DRD fibroblast viability loss – cell-based, non-viral oncogenic, luminescence, dose response (AID 1934); assay type: functional; details: Homo sapiens
[12] = target: T4, High affinity choline transporter 1 (Homo sapiens, UniProt Q9GZV3); test: human choline transporter potentiators, potency – cell-based, 10-point CRC, membrane potential dye, dose response (AID 602376); assay type: functional
T4 sequence (Q9GZV3 whole entry): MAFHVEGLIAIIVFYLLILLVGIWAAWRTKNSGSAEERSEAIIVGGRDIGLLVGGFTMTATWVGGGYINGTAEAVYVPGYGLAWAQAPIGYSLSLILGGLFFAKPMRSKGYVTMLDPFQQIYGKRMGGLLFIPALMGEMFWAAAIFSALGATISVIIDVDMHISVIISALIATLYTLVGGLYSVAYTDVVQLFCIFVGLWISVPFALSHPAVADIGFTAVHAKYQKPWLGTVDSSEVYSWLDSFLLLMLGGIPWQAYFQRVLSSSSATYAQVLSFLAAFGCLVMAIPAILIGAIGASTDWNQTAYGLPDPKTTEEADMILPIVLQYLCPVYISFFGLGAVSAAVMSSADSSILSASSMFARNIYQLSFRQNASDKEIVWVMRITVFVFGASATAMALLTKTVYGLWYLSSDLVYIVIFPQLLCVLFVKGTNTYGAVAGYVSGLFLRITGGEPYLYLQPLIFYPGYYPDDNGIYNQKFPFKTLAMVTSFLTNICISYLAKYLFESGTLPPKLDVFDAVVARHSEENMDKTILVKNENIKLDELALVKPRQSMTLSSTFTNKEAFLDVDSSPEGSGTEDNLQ

BJ [13] = test: BJ-TERT fibroblast viability loss – cell-based, RAS-independent, luminescence, dose response (AID 1933); assay type: functional; details: Homo sapiens
BJ [14] = test: growth inhibition of engineered Ras-driven BJ cells – cell-based, alamar blue fluorescence, cherrypicked samples, dose response (AID 2631); assay type: functional; details: Homo sapiens;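 also: confirmatory dose-response assay in RAS-dependent BJ fibroblasts engineered with TERT, LT and ST, with cytotoxicity read by fluorescence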
BJ [15] = test: cells; assay type: functional, cell-based; details: Homo sapiens
[16] = MIN6 cell viability loss – mouse insulinoma, cytotoxicity control, dose response (AID 2122); assay type: functional;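 also: confirmatory high-throughput counterscreen run to flag cytotoxic compounds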
[17] = target: T5, Ubiquitin-conjugating enzyme E2 N (Homo sapiens, UniProt P61088); assay type: functional;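 also: Dose-response confirmation in a TR-FRET assay detecting UBC13-driven polyubiquitin chain formation, inhibition measured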
T5 sequence (P61088 whole entry): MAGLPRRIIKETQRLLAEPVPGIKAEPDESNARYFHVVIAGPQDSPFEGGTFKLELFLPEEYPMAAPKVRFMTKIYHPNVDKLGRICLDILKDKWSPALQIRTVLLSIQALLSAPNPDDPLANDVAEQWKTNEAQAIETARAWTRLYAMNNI

[18] = THP-1 cell cytotoxicity, dose response, cytotoxicity control for non-replicating M. tuberculosis project (AID 489025); assay type: functional
[19] = Vero E6 cell cytotoxicity, dose response, cytotoxicity control for non-replicating M. tuberculosis project, secondary assay (AID 492998); assay type: functional, VeroE6; details: Vero C1008
[20] = decrease of insulin promoter-GFP reporter – imaging, high-content screening, mouse beta cells (AID 1628); assay type: functional; details: MIN6
BJ [21] = test: BJ-TERT-LT-ST fibroblast viability loss – cell-based, RAS-independent, luminescence, dose response (AID 1935); assay type: functional; details: Homo sapiens;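 also: BJ fibroblasts immortalized with TERT plus LT and ST oncogenes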
Beta Lactamase = Beta Lactamase (Pseudomonas aeruginosa, UniProt Q932Y6); test: BLA reporter interference, concentration series – BLA reporter cells, FRET fluorescence, artefact control for NOD2-RIPK2 interaction inhibitor project, dose response (AID 651552); assay type: functional, cell-based
Beta Lactamase, sequence (Q932Y6 whole entry): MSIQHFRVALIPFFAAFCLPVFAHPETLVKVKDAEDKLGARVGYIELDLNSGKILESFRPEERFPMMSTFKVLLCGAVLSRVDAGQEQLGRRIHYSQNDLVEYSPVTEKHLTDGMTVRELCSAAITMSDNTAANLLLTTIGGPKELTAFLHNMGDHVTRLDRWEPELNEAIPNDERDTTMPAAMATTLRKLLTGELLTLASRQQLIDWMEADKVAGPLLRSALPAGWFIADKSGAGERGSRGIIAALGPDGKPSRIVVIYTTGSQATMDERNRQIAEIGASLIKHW

26S proteasome non-ATPase regulatory subunit 14, sequence (O00487 whole entry): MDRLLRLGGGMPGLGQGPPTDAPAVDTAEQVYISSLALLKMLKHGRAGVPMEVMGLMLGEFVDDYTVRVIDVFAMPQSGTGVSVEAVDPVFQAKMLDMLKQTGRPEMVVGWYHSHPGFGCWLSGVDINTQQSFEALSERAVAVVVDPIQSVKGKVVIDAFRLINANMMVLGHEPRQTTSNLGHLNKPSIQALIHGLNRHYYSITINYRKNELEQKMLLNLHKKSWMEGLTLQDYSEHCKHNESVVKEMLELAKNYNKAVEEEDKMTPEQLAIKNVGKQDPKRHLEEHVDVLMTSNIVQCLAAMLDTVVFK

In the case of CC[n+]1c(/C=C/Nc2ccccc2)oc2ccc(OC)cc21, the IC50 [1] is reported as 23.2 µM (active), the EC50 [2] is reported as 3.35 µM (active) and the IC50 (Prothrombin) is reported as 55.6 µM (active). The IC50 [3] was > 100 µM (inactive).

With COc1ccc2c(Cl)c(C(=O)N/N=C/c3c(C)[nH]c4ccccc34)sc2c1 the IC50 [4] was 6.57 µM (active), the IC50 [5] was 2.04 µM (active) and the IC50 [6] was > 49.8 µM (inactive). The IC50 (Orexin receptor type 2 [7]) was > 50 µM (inactive), the IC50 (Orexin receptor type 2 [8]) was 23.2 µM (inactive) and the IC50 (CHO-K1) was > 66.2 µM (inactive).

For CCCCCOc1ccc(Br)cc1/C(C)=N/NC1=NCCN1, the IC50 [9] was 39.9 µM (inactive), the CC50 [10] was 11.3 µM (active) and the IC50 (cells) was 21.4 µM (active). The EC50 [11] was 5.8 µM (active), the EC50 [12] was 14.8 µM (active) and the EC50 (BJ [13]) was 2.99 µM (active). The EC50 (BJ [14]) was 0.647 µM (active), the EC50 (BJ [15]) was 8.5 µM (active) and the IC50 [16] was 1.26 µM (active). For the same compound, the IC50 [17] was > 20 µM (inactive), the CC50 [18] was 2.09 µM (active) and the CC50 [19] was 5.08 µM (active). For the same compound, the IC50 [20] was 1.6 µM (active), the EC50 (BJ [21]) was 4.48 µM (inconclusive) and the IC50 (Beta Lactamase) was 49.8 µM (inactive).

In the case of COc1ccc(-c2nc3ccccc3s2)cc1O, the IC50 [4] is reported as 9.38 µM (active), the IC50 [5] is reported as 3.25 µM (active) and the IC50 [6] is reported as > 49.8 µM (inactive). For the same compound, the IC50 (Orexin receptor type 2 [7]) was 9.41 µM (active), the IC50 (Orexin receptor type 2 [8]) was 56 µM (inactive) and the IC50 (CHO-K1) was > 66.2 µM (inactive).

In the case of COc1ccc(C(CCNCc2ccc(OC)c(OC)c2)c2ccc(F)cc2)cc1 (configuration not stated), the EC50 [12] is reported as 20.9 µM (active).
